Results taken from PMC6277767, “Broad and Region-Specific Impacts of the Synthetic Cannabinoid CP 55,940 in Adolescent and Adult Female Mouse Brains” (Frontiers in Molecular Neuroscience, 2018).

Test system: CD1 female mouse brain lipidome
Test: Brain-region lipid levels (HPLC/MS/MS lipidomics) 2 h after single i.p. 3 mg/kg CP 55,940 vs vehicle
Assay type: in vivo
Description: The Bloomington Institutional Animal Care and Use Committee of Indiana University reviewed and approved the animal procedures. Female mice from the CD1 strain were utilized to match our study examining THC’s effects on the brain lipidome ([Leishman et al., 2018]). Mice were given a single i.p. injection of either 3 mg/kg CP or 1:1:18 cremophor:ethanol:saline vehicle (please refer to the section “3 mg/kg CP Is Relevant for Synthetic Cannabinoid Abuse and Has Stronger Effects on the Female Mouse Brain Lipidome During Adolescence” for a justification of dose and use of female mice). Three different age groups were given injections: PND 35 and PND 50 adolescents, and adult mice (PND 113). At least eight mice in each age group received CP and at least eight received vehicle. Matching the THC study time course ([Leishman et al., 2018]), mice were sacrificed via rapid decapitation 2 h after injection. Brains were immediately removed and flash-frozen in liquid nitrogen, and then stored at -80°C until dissections were performed. Brains were dissected on an ice-cold dissection plate into the following regions: STR, HIPP, CER, THAL, CTX, HYP, MID, and STEM. These abbreviations for these brain areas will be used exclusively when discussing the results generated by these specific dissections. Each dissected area was immediately placed in liquid nitrogen and then stored at -80°C until used for lipid extraction.
Tissue extracts were performed as previously described ([Bradshaw et al., 2006]; [Stuart et al., 2013]; [Raboune et al., 2014]; [Leishman et al., 2016a],[b], [2017], [2018]). First, samples were shock frozen in liquid nitrogen, weighed, and transferred to a centrifuge tube. The mass of the largest sample was multiplied by 50 to determine how many milliliters of HPLC-grade methanol (Fisher, Fair Lawn, NJ, United States) to add. Then, samples were spiked with 500 pmol deuterium-labeled NAGly (d8NAGly; Cayman Chemical, Ann Arbor, MI, United States). Samples were placed on ice in darkness for 2 h then individually homogenized and centrifuged at 19,000 × g for 20 min at 20°C. Supernatants were diluted with HPLC water (purified in house) to make a solution of 75% water, 25% supernatant. Lipids were partially purified on C18 solid phase extraction columns (Agilent, Palo Alto, CA, United States). A series of four elutions with 1.5 mL of 60%, 75%, 85%, and 100% methanol were collected ([Stuart et al., 2013]; [Leishman et al., 2016a],[b], [2018]).
As previously described ([Bradshaw et al., 2006]; [Tan et al., 2006]; [Smoum et al., 2010]; [Stuart et al., 2013]; [Tortoriello et al., 2013]; [Raboune et al., 2014]; [Leishman et al., 2016a],[b], [2017], [2018]), samples were analyzed using an Applied Biosystems API 3000 triple quadrupole mass spectrometer with electrospray ionization (Foster City, CA, United States). Using an Agilent XDB-C18 reversed phase analytical column and optimized mobile phase gradients, 20 μL from each elution were chromatographed. Two Shimadzu 10ADvp pumps (Columbia, MD, United States) provided the pressure for gradient elution. Mobile phase A: 20% methanol, 80% water (v/v) and 1 mM ammonium acetate (Sigma, St. Louis, MO, United States). Mobile phase B: 100% methanol, 1 mM ammonium acetate. Every method run began with 0% mobile phase B, reached 100% mobile phase B flowing at 0.2 mL/min, and gradually returned to 0% mobile phase B.
This screening library will be referred to as the lipidome when discussing data from this study. HPLC/MS/MS data were analyzed using Analyst software (Applied Biosystems) ([Bradshaw et al., 2006]; [Tan et al., 2006]; [Stuart et al., 2013]; [Tortoriello et al., 2013]; [Raboune et al., 2014]; [Leishman et al., 2016a],[b], [2017], [2018]). Chromatograms (Supplementary Figure 3) were generated by determining the retention time of analytes from the analytical column with a [M-1] or [M+1] parent peak and a fragmentation peak corresponding to the programmed values. […]

CCCCCCC(C)(C)c1ccc([C@@H]2C[C@H](O)CC[C@H]2CCCO)c(O)c1 [CP 55,940]
total changes in lipid levels across the eight regions (PND 35): 231
changes in lipid levels that were decreases (PND 35, eight regions): 152
2-arachidonoyl glycerol level vs vehicle (PND 35 CER): ↓ (1-1.49 times lower than vehicle)
2-linoleoyl glycerol level vs vehicle (PND 35 CER): ↓ (1-1.49 times lower than vehicle)
6-ketoPGF1α level vs vehicle (PND 35 CER): ↓↓ (1.50-1.99 times lower than vehicle)
Arachidonic acid level vs vehicle (PND 35 CER): ↓ (1-1.49 times lower than vehicle)
N-arachidonoyl GABA level vs vehicle (PND 35 CER): ↓ (1-1.49 times lower than vehicle)
N-arachidonoyl alanine level vs vehicle (PND 35 CER): ↓ (1-1.49 times lower than vehicle)
N-arachidonoyl glycine level vs vehicle (PND 35 CER): ↓ (1-1.49 times lower than vehicle)
N-arachidonoyl methionine level vs vehicle (PND 35 CER): ↓↓ (1.50-1.99 times lower than vehicle)
N-arachidonoyl serine level vs vehicle (PND 35 CER): ↓ (1-1.49 times lower than vehicle)
N-arachidonoyl taurine level vs vehicle (PND 35 CER): ↓ (1-1.49 times lower than vehicle)
N-arachidonoyl tyrosine level vs vehicle (PND 35 CER): ↓ (1-1.49 times lower than vehicle)
N-docosahexaenoyl GABA level vs vehicle (PND 35 CER): ↓ (1-1.49 times lower than vehicle)
N-docosahexaenoyl alanine level vs vehicle (PND 35 CER): ↓ (1-1.49 times lower than vehicle)
N-docosahexaenoyl glycine level vs vehicle (PND 35 CER): ↓ (1-1.49 times lower than vehicle)
N-docosahexaenoyl leucine level vs vehicle (PND 35 CER): ↑ (1-1.49 times higher than vehicle)
N-docosahexaenoyl serine level vs vehicle (PND 35 CER): ↓ (1-1.49 times lower than vehicle)
N-docosahexaenoyl tyrosine level vs vehicle (PND 35 CER): ↓ (1-1.49 times lower than vehicle)
N-linoleoyl glycine level vs vehicle (PND 35 CER): ↓ (1-1.49 times lower than vehicle)
N-linoleoyl leucine level vs vehicle (PND 35 CER): ↑ (1-1.49 times higher than vehicle)
N-linoleoyl phenylalanine level vs vehicle (PND 35 CER): ↑ (1-1.49 times higher than vehicle)
N-oleoyl GABA level vs vehicle (PND 35 CER): ↓ (1-1.49 times lower than vehicle)
N-oleoyl ethanolamine level vs vehicle (PND 35 CER): ↓ (1-1.49 times lower than vehicle)
N-oleoyl leucine level vs vehicle (PND 35 CER): ↑ (1-1.49 times higher than vehicle)
N-oleoyl phenylalanine level vs vehicle (PND 35 CER): ↑ (1-1.49 times higher than vehicle)
N-palmitoyl leucine level vs vehicle (PND 35 CER): ↑↑ (1.50-1.99 times higher than vehicle)
N-palmitoyl phenylalanine level vs vehicle (PND 35 CER): ↑ (1-1.49 times higher than vehicle)
N-palmitoyl proline level vs vehicle (PND 35 CER): ↓ (1-1.49 times lower than vehicle)
N-palmitoyl serine level vs vehicle (PND 35 CER): ↓ (1-1.49 times lower than vehicle)
N-palmitoyl tyrosine level vs vehicle (PND 35 CER): ↑ (1-1.49 times higher than vehicle)
N-palmitoyl valine level vs vehicle (PND 35 CER): ↑↑ (1.50-1.99 times higher than vehicle)
2-palmitoyl glycerol level vs vehicle (PND 35 CTX): ↑↑ (1.50-1.99 times higher than vehicle)
6-ketoPGF1α level vs vehicle (PND 35 CTX): ↓ (1-1.49 times lower than vehicle)
N- stearoyl valine level vs vehicle (PND 35 CTX): ↑ (1-1.49 times higher than vehicle)
N-arachidonoyl GABA level vs vehicle (PND 35 CTX): ↓ (1-1.49 times lower than vehicle)
N-arachidonoyl alanine level vs vehicle (PND 35 CTX): ↓ (1-1.49 times lower than vehicle)
N-arachidonoyl glycine level vs vehicle (PND 35 CTX): ↓ (1-1.49 times lower than vehicle)
N-arachidonoyl methionine level vs vehicle (PND 35 CTX): ↓↓ (1.50-1.99 times lower than vehicle)
N-arachidonoyl phenylalanine level vs vehicle (PND 35 CTX): ↓ (1-1.49 times lower than vehicle)
N-arachidonoyl serine level vs vehicle (PND 35 CTX): ↓ (1-1.49 times lower than vehicle)
N-arachidonoyl taurine level vs vehicle (PND 35 CTX): ↓ (1-1.49 times lower than vehicle)
N-arachidonoyl tyrosine level vs vehicle (PND 35 CTX): ↓ (1-1.49 times lower than vehicle)
N-docosahexaenoyl GABA level vs vehicle (PND 35 CTX): ↓ (1-1.49 times lower than vehicle)
N-docosahexaenoyl glycine level vs vehicle (PND 35 CTX): ↓ (1-1.49 times lower than vehicle)
N-docosahexaenoyl leucine level vs vehicle (PND 35 CTX): ↑↑ (1.50-1.99 times higher than vehicle)
N-docosahexaenoyl serine level vs vehicle (PND 35 CTX): ↓↓ (1.50-1.99 times lower than vehicle)
N-docosahexaenoyl valine level vs vehicle (PND 35 CTX): ↑ (1-1.49 times higher than vehicle)
N-linoleoyl GABA level vs vehicle (PND 35 CTX): ↓ (1-1.49 times lower than vehicle)
N-linoleoyl glycine level vs vehicle (PND 35 CTX): ↓ (1-1.49 times lower than vehicle)
N-oleoyl GABA level vs vehicle (PND 35 CTX): ↓ (1-1.49 times lower than vehicle)
N-oleoyl alanine level vs vehicle (PND 35 CTX): ↓ (1-1.49 times lower than vehicle)
N-oleoyl glycine level vs vehicle (PND 35 CTX): ↓ (1-1.49 times lower than vehicle)
N-oleoyl leucine level vs vehicle (PND 35 CTX): ↑ (1-1.49 times higher than vehicle)
N-oleoyl methionine level vs vehicle (PND 35 CTX): ↓ (1-1.49 times lower than vehicle)
N-oleoyl valine level vs vehicle (PND 35 CTX): ↑ (1-1.49 times higher than vehicle)
N-palmitoyl leucine level vs vehicle (PND 35 CTX): ↑↑ (1.50-1.99 times higher than vehicle)
N-palmitoyl serine level vs vehicle (PND 35 CTX): ↓ (1-1.49 times lower than vehicle)
N-palmitoyl tyrosine level vs vehicle (PND 35 CTX): ↑ (1-1.49 times higher than vehicle)
N-palmitoyl valine level vs vehicle (PND 35 CTX): ↑↑ (1.50-1.99 times higher than vehicle)
N-stearoyl serine level vs vehicle (PND 35 CTX): ↓ (1-1.49 times lower than vehicle)
N-stearoyl tyrosine level vs vehicle (PND 35 CTX): ↑ (1-1.49 times higher than vehicle)
PGF2α level vs vehicle (PND 35 CTX): ↑ (1-1.49 times higher than vehicle)
phosphoLEA level vs vehicle (PND 35 CTX): ↑↑ (1.50-1.99 times higher than vehicle)
2-arachidonoyl glycerol level vs vehicle (PND 35 HIPP): ↓ (1-1.49 times lower than vehicle)
2-linoleoyl glycerol level vs vehicle (PND 35 HIPP): ↓↓ (1.50-1.99 times lower than vehicle)
2-oleoyl glycerol level vs vehicle (PND 35 HIPP): ↓ (1-1.49 times lower than vehicle)
6-ketoPGF1α level vs vehicle (PND 35 HIPP): ↑ (1-1.49 times higher than vehicle)
Arachidonic acid level vs vehicle (PND 35 HIPP): ↓ (1-1.49 times lower than vehicle)
Linoleic acid level vs vehicle (PND 35 HIPP): ↓ (1-1.49 times lower than vehicle)
N- stearoyl valine level vs vehicle (PND 35 HIPP): ↑ (1-1.49 times higher than vehicle)
N-arachidonoyl GABA level vs vehicle (PND 35 HIPP): ↓↓ (1.50-1.99 times lower than vehicle)
N-arachidonoyl alanine level vs vehicle (PND 35 HIPP): ↓ (1-1.49 times lower than vehicle)
N-arachidonoyl ethanolamine level vs vehicle (PND 35 HIPP): ↓ (1-1.49 times lower than vehicle)
N-arachidonoyl glycine level vs vehicle (PND 35 HIPP): ↓ (1-1.49 times lower than vehicle)
N-arachidonoyl phenylalanine level vs vehicle (PND 35 HIPP): ↓ (1-1.49 times lower than vehicle)
N-arachidonoyl serine level vs vehicle (PND 35 HIPP): ↓↓↓ (2-2.99 times lower than vehicle)
N-arachidonoyl taurine level vs vehicle (PND 35 HIPP): ↓ (1-1.49 times lower than vehicle)
N-docosahexaenoyl GABA level vs vehicle (PND 35 HIPP): ↓↓ (1.50-1.99 times lower than vehicle)
N-docosahexaenoyl alanine level vs vehicle (PND 35 HIPP): ↓ (1-1.49 times lower than vehicle)
N-docosahexaenoyl ethanolamine level vs vehicle (PND 35 HIPP): ↓ (1-1.49 times lower than vehicle)
N-docosahexaenoyl glycine level vs vehicle (PND 35 HIPP): ↓ (1-1.49 times lower than vehicle)
N-docosahexaenoyl leucine level vs vehicle (PND 35 HIPP): ↑ (1-1.49 times higher than vehicle)
N-docosahexaenoyl serine level vs vehicle (PND 35 HIPP): ↓ (1-1.49 times lower than vehicle)
N-linoleoyl GABA level vs vehicle (PND 35 HIPP): ↓↓ (1.50-1.99 times lower than vehicle)
N-linoleoyl alanine level vs vehicle (PND 35 HIPP): ↓ (1-1.49 times lower than vehicle)
N-oleoyl GABA level vs vehicle (PND 35 HIPP): ↓↓ (1.50-1.99 times lower than vehicle)
N-oleoyl alanine level vs vehicle (PND 35 HIPP): ↓ (1-1.49 times lower than vehicle)
N-oleoyl ethanolamine level vs vehicle (PND 35 HIPP): ↓ (1-1.49 times lower than vehicle)
N-oleoyl glycine level vs vehicle (PND 35 HIPP): ↓ (1-1.49 times lower than vehicle)
N-oleoyl methionine level vs vehicle (PND 35 HIPP): ↓ (1-1.49 times lower than vehicle)
N-oleoyl valine level vs vehicle (PND 35 HIPP): ↑ (1-1.49 times higher than vehicle)
N-palmitoyl alanine level vs vehicle (PND 35 HIPP): ↓ (1-1.49 times lower than vehicle)
N-palmitoyl ethanolamine level vs vehicle (PND 35 HIPP): ↓ (1-1.49 times lower than vehicle)
N-palmitoyl leucine level vs vehicle (PND 35 HIPP): ↑ (1-1.49 times higher than vehicle)
N-palmitoyl phenylalanine level vs vehicle (PND 35 HIPP): ↑ (1-1.49 times higher than vehicle)
N-palmitoyl tyrosine level vs vehicle (PND 35 HIPP): ↑ (1-1.49 times higher than vehicle)
N-palmitoyl valine level vs vehicle (PND 35 HIPP): ↑ (1-1.49 times higher than vehicle)
N-stearoyl GABA level vs vehicle (PND 35 HIPP): ↓ (1-1.49 times lower than vehicle)
N-stearoyl alanine level vs vehicle (PND 35 HIPP): ↓ (1-1.49 times lower than vehicle)
N-stearoyl glycine level vs vehicle (PND 35 HIPP): ↓ (1-1.49 times lower than vehicle)
Oleic Acid level vs vehicle (PND 35 HIPP): ↓ (1-1.49 times lower than vehicle)
